In patent US7084161B2, “Method for treating inflammatory diseases or conditions” (SmithKlineBeecham Corporation, priority 2000, dated 2006):

System: LPS-induced INOS activity in J774 cells
Assay: LPS-induced iNOS activity in J774 cells (DAF-2 fluorescence)
Type: cell-based, mouse
Details: pre-treatment 6 hours prior to and 24 hours subsequent to LPS (typically 1 ug/ml), at sub-nanomolar—nanomolar concentrations
Protocol: In this assay system, lipopolysaccharide (LPS) was used to induce the expression of INOS in the mouse macrophage cell line, J774. […] This reduction in INOS activity correlated with a reduction in LPS-induced INOS mRNA expression.
Specifically, LPS-induced INOS activity was measured using the following assay conditions. J774 cells were seeded at a density of […] per well, in a black, clear-bottomed, 96 well plate, 24 hours prior to use. The cell culture and the drug dilutions were carried out in complete media, which consisted of DMEM (Dulbecco's modification of Eagle's medium) containing foetal calf serum (10%), glutamine (2 mM), penicillin (100 u/ml) and streptomycin (100 μg/ml). The J774 cells were pre-treated with the PPAR delta activators A and B, or vehicle, for 6 hours prior to, and for 24 hours subsequent to the addition of LPS (typically, a concentration of 1 ug/ml of LPS was used). Twenty-four hours after the addition of LPS, INOS activity was measured by the following method. […] After incubation at 37° C. for 3 hours, fluorescence from each well was measured at an excitation wavelength of 485 nm, and an emission wavelength of 530 nm. The ability of LPS to induce INOS activity, in the presence and absence of PPAR delta activators, was then calculated. […]

SMILES | inhibition of LPS-induced INOS activity
Cc1cc(SCc2sc(-c3ccc(C(F)(F)F)cc3)nc2C)ccc1OCC(=O)O [Compound A, 2-{2-methyl-4-[({4-methyl-2-[4-(trifluoromethyl)phenyl]-1,3-thiazol-5-yl}methyl)sulfanyl]phenoxy}acetic Acid] | marked inhibition
Cc1cc(SCc2sc(-c3ccc(C(F)(F)F)c(F)c3)nc2C)ccc1OCC(=O)O [Compound B, 2-{2-methyl-4-[({4-methyl-2-[3-fluoro-4-(trifluoromethyl)phenyl]-1,3-thiazol-5-yl}methyl)sulfanyl]phenoxy}acetic Acid] | marked inhibition
